Source: publication PMC7005530, “A selective androgen receptor modulator SARM‐2f activates androgen receptor, increases lean body mass, and suppresses blood lipid levels in cynomolgus monkeys” (Pharmacology Research & Perspectives, 2020)

What was measured:
[1] = Liver function tests (AST, ALT) after 4-week treatment; assay type: in vivo, cynomolgus monkey; conditions: after 4 wks; SARM‐2f 1, 3, 10 mg/kg daily p.o.; TE 2 mg/kg every 2 wks; vs vehicle
Method: (§1) The monkeys were divided into five groups by weight randomization (MiTOX system ver2.0, Mitsui E & S Systems Research Inc) on the last day of the habituation period. SARM‐2f was orally administered at daily doses of 1, 3, or 10 mg/kg for 4 weeks between 9:00 and 11:00 hours, using 0.5% w/v methylcellulose as the vehicle. TE was injected intramuscularly on Day 0 and Day 13; the dosing start was set at Day 0 at a dose of 2 mg/kg using sesame oil as the vehicle. The route of administration and dose of TE was selected according to the route and dose mentioned in the clinical indications. BW was measured every week before dosing (between 8:30 and 9:00 hours), and LBM was measured every 2 weeks after dosing and before feeding (between 11:30 and 14:30 hours) using an X‐ray bone density measuring device (Discovery, HOLOGIC USA). Blood collection for lipid profiles was conducted on the day after the completion of the four‐week multiple administration of SARM‐2f or TE. Plasma levels of total cholesterol (T‐chol), HDL‐c, low‐density lipoprotein cholesterol (LDL‐c), triglyceride (TG), alanine aminotransferase (ALT), and […] (AST) were measured by an automatic JCA‐BM8 analysis system (JEOL Ltd.). Plasma lipoprotein (a) (Lp (a)) levels were measured using a multiplate absorbance measuring system (Multiscan Ascent, Thermo Fisher Scientific KK).
(§2) In the reporter assays, EC50 was calculated using Graph Pad Prism version 6. The effects of SARM‐2f or TE on BW and LBM were analyzed by t test, with Bonferroni correction for repeated measurements.

[2] = Plasma lipid levels after 4-week treatment; assay type: in vivo, cynomolgus monkey; conditions: after 4 wks; SARM‐2f 1, 3, 10 mg/kg daily p.o.; TE 2 mg/kg every 2 wks; vs vehicle
Method: as §1, with “KK). […]” for “KK).”

[3] = TE intramuscular 20 mg/kg, monkeys, cited from earlier work
rat AR = target: T1, rat AR (Rattus norvegicus, UniProt P15207); experiment: AR reporter assay (MMTV-luc) in COS7 cells expressing rat AR; assay type: cell-based; design: Emax: dose or concentration left out as unconfirmed
T1 construct: expressed in transfected cells; host or cells: COS7
T1 sequence (P15207 1-902): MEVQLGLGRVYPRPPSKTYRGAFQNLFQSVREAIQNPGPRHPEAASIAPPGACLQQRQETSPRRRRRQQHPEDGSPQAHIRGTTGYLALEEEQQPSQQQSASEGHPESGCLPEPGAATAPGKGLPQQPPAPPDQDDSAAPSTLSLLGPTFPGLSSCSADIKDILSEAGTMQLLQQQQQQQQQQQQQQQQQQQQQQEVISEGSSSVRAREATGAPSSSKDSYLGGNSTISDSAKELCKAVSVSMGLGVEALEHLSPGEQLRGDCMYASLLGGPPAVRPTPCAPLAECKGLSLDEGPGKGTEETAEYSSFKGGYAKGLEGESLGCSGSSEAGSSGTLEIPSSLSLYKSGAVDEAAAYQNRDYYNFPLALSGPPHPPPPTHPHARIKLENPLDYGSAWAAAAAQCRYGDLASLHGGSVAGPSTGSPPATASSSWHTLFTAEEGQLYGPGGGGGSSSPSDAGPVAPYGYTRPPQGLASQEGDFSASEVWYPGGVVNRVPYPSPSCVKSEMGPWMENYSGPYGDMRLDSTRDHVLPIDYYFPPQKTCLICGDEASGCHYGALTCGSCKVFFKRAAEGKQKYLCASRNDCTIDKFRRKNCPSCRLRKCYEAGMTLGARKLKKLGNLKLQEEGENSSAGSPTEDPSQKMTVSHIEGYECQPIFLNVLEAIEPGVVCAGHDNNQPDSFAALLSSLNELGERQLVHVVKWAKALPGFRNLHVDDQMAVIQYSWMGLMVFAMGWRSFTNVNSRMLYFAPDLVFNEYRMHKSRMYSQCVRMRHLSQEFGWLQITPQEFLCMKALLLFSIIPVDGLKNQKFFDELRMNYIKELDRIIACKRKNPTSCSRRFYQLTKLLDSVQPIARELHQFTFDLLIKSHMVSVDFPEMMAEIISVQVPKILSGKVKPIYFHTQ
Method: (§3) Two hours post‐transfection, the cells were plated in 96‐well plates at a density of 2 × 10^4 cells/well, and cultured at 37°C for 3 hours. […] Luciferase activity was measured using the Steady‐Glo Luciferase assay system (Promega) and an Envision Multimode Plate Reader (PerkinElmer).
as §2

human AR = target: T2, human AR (Homo sapiens, UniProt P10275); experiment: AR reporter assay (MMTV-luc) in COS7 cells expressing human AR; assay type: cell-based; design: Emax: dose or concentration left out as unconfirmed; conditions: COS-7, read-out: maximal activation level
T2 construct: expressed in transfected cells; host or cells: COS7
T2 sequence (P10275 1-920): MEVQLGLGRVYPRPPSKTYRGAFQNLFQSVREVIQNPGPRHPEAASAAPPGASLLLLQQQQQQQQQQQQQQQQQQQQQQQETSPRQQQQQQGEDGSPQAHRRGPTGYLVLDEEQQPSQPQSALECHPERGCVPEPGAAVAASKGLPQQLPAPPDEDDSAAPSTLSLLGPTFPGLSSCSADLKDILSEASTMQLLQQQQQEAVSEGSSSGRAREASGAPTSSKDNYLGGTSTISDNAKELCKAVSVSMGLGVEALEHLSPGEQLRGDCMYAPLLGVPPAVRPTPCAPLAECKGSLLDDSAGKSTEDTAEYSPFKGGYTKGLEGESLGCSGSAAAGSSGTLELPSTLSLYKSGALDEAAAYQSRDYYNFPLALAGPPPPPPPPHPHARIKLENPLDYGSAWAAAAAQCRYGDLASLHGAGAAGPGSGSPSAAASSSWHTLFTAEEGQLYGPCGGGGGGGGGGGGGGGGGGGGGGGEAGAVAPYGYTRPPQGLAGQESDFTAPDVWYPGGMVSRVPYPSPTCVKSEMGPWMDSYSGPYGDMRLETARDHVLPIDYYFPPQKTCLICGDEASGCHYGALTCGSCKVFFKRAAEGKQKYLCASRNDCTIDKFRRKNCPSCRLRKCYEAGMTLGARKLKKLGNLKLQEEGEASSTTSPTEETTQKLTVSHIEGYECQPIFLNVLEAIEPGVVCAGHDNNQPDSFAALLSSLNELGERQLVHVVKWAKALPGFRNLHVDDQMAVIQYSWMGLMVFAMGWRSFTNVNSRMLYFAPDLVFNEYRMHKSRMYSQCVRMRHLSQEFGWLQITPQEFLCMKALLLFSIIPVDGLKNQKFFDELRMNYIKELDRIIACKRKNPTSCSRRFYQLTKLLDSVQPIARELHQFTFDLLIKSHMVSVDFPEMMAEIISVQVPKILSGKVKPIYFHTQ
Method: as §3, §2

cynomolgus monkey AR = target: T3, cynomolgus monkey AR (Macaca fascicularis, UniProt O97952); experiment: AR reporter assay (MMTV-luc) in COS7 cells expressing monkey AR; assay type: cell-based
T3 construct: expressed in transfected cells; host or cells: COS7
T3 sequence (O97952 1-895): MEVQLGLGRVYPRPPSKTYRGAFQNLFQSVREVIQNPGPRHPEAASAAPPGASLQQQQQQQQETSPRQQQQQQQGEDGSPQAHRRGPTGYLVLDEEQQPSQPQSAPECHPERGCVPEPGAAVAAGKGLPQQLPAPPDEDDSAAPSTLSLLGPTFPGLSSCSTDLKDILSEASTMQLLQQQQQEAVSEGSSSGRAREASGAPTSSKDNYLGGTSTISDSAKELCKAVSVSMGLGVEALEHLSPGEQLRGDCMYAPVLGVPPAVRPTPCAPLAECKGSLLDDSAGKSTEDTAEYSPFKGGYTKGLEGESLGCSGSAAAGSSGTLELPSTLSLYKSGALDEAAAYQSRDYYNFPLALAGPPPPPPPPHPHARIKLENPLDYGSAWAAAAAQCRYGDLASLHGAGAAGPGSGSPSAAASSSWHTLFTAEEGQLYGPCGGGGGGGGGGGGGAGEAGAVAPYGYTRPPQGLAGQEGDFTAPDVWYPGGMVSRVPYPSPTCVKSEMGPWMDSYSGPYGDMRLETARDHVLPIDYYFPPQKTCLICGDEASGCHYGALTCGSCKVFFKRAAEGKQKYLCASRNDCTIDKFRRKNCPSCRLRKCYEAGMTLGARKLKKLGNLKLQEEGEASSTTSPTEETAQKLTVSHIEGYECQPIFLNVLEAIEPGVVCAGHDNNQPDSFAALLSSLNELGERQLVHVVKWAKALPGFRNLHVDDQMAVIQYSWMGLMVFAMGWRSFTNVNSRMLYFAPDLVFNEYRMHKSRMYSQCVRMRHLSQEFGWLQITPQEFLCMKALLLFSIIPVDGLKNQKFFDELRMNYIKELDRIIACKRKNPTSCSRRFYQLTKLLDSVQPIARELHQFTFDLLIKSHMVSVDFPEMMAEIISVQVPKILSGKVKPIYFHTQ
Method: as §3, §2

Compound: CCCCCCC(=O)O[C@H]1CC[C@H]2[C@@H]3CCC4=CC(=O)CC[C@]4(C)[C@H]3CC[C@]12C [TE, Testosterone enanthate, reference compound]
- Blood level of ALT [1]: not changed
- Blood level of AST [1]: not changed
- Blood level of HDL‐c [2]: did not affect
- Blood level of LDL‐c [2]: increase the LDL‐c level significantly
- Blood level of TG [2]: did reduce the TG level
- Blood level of T‐chol [2]: did not affect
- Lp (a) protein level [2]: did not affect
- effect on BW ([3]; within 4 weeks): significantly increasing the BW
- blood testosterone nadir levels [3]: approximately 1500 ng/dL

Compound: C[C@](O)(COc1ccc(C#N)cc1)C(=O)Nc1ccc(C#N)c(C(F)(F)F)c1 [ostarine, reference compound]
- EC50 (rat AR): 2.5 nM
- Emax (rat AR; COS-7, read-out: maximal activation): 112%
- Emax (human AR): 141%
- EC50 (cynomolgus monkey AR): 2.2 nM
- maximal AR activation (cynomolgus monkey AR; monkey AR, at 1 μmol/L, 1 μmol/L DHT = 100%): 126%
